Source: patent US20260138988A1, “Spiropyrrolidine Derived Antiviral Agents” (Enanta Pharmaceuticals, Inc., priority 2021, published 2026)

The compounds below were run against SARS-CoV-2 3CL-protease (Severe acute respiratory syndrome coronavirus 2, UniProt P0DTD1) (assay: SARS-CoV-2 3C-Like (3CL) Protease Fluorescence Assay (FRET)). Settings: IC50, SARS-CoV-2 3CL-protease 10 nM, test compounds 0-10 μM, duplicate.
Assay type: biochemical
`CC(C)C[C@@H](C(=O)N1C[C@]2(C[C@H]1C#N)C(=O)Nc1ccccc12)N(C)C(=O)[C@H](C)NC(=O)C(F)(F)C(F)(F)C(F)(F)C(F)(F)F` [Example 144] was tested, and the IC50 was less than 0.1 µM. `C[C@H](NC(=O)C(F)(F)C(F)(F)C(F)(F)F)C(=O)N(C)[C@@H](C)C(=O)N1C[C@]2(C[C@H]1C#N)C(=O)Nc1ccccc12` [Example 198] was tested, and the IC50 was less than 0.1 µM. In the case of `CC[C@H](NC(=O)C(F)(F)C(F)(F)C(F)(F)F)C(=O)N(C)[C@@H](CC(C)C)C(=O)N1C[C@]2(C[C@H]1C#N)C(=O)Nc1ccccc12` [Example 201], the IC50 is reported as less than 0.1 µM. Work on `C[C@H](NC(=O)C(F)(F)C(F)(F)C(F)(F)F)C(=O)N(C)[C@@H](CC1CC1)C(=O)N1C[C@]2(C[C@H]1C#N)C(=O)Nc1ccccc12` [Example 206] yielded an IC50 of less than 0.1 µM.

Same assay, conditions: SARS-CoV-2 3CL-protease 10 nM, test compounds 0-10 μM, duplicate, read-out: IC50
With `CC(C)C[C@@H](C(=O)N1C[C@]2(C[C@H]1C#N)C(=O)Nc1ccccc12)N(C)C(=O)[C@H](C)NC(=O)C1(F)CC2(CCC2)C1` [Example 141] the IC50 was less than 0.1 µM. In the case of `CC(C)C[C@@H](C(=O)N1C[C@]2(C[C@H]1C#N)C(=O)Nc1ccccc12)N(C)C(=O)[C@H](C)NC(=O)C(F)(F)CC(C)C` [Example 142], the IC50 is reported as less than 0.1 µM. `CC(C)C[C@@H](C(=O)N1C[C@]2(C[C@H]1C#N)C(=O)Nc1ccccc12)N(C)C(=O)[C@H](C)NC(=O)C1(F)CCCC1` [Example 143] showed an IC50 of less than 0.1 µM. For `CC(C)C[C@@H](C(=O)N1C[C@]2(C[C@H]1C#N)C(=O)Nc1ccccc12)N(C)C(=O)[C@H](C)NC(=O)c1ccc(F)cc1C(F)(F)F` [Example 145], the IC50 was less than 0.1 µM. In the case of `CC(C)C[C@@H](C(=O)N1C[C@]2(C[C@H]1C#N)C(=O)Nc1ccccc12)N(C)C(=O)[C@H](C)NC(=O)c1cccc(-c2ccc(F)cc2F)c1` [Example 146], the IC50 is reported as less than 0.1 µM. `CC(C)C[C@@H](C(=O)N1C[C@]2(C[C@H]1C#N)C(=O)Nc1ccccc12)N(C)C(=O)[C@H](C)NC(=O)c1cccc(-c2ccc(C(F)(F)F)cc2)c1` [Example 147] was tested, and the IC50 was less than 0.1 µM. `C[C@H](NC(=O)C(F)(F)C(F)(F)F)C(=O)N(C)[C@@H](CC1CC1)C(=O)N1C[C@]2(C[C@H]1C#N)C(=O)Nc1ccc(Br)cc12` [Example 167] showed an IC50 of less than 0.1 µM. Compound `CC(C)C[C@@H](C(=O)N1C[C@]2(C[C@H]1C#N)C(=O)Nc1ccc(Cl)cc12)N(C)C(=O)[C@H](C)NC(=O)C(F)(F)C(F)(F)F` [Example 168] has an IC50 of less than 0.1 µM. Work on `CC(C)C[C@@H](C(=O)N1C[C@]2(C[C@H]1C#N)C(=O)Nc1ccc(Br)cc12)N(C)C(=O)[C@H](C)NC(=O)C(F)(F)C(F)(F)F` [Example 169] yielded an IC50 of less than 0.1 µM. In the case of `C[C@H](NC(=O)C(F)(F)C(F)(F)F)C(=O)N(C)[C@@H](CC1CC1)C(=O)N1C[C@]2(C[C@H]1C#N)C(=O)Nc1ccc(Cl)cc12` [Example 170], the IC50 is reported as less than 0.1 µM. With `C[C@H](NC(=O)C(F)(F)C(F)(F)F)C(=O)N(C)[C@@H](CC(C)(C)C)C(=O)N1C[C@]2(C[C@H]1C#N)C(=O)Nc1ccc(Br)cc12` [Example 171] the IC50 was less than 0.1 µM. `C[C@H](NC(=O)C(F)(F)C(F)(F)F)C(=O)N(C)[C@@H](CC(C)(C)C)C(=O)N1C[C@]2(C[C@H]1C#N)C(=O)N(Cl)c1ccc(Cl)cc12` [Example 172] showed an IC50 of less than 0.1 µM. For `C[C@H](NC(=O)C(F)(F)C(F)(F)F)C(=O)N(C)[C@@H](CC(C)(C)C)C(=O)N1C[C@]2(C[C@H]1C#N)C(=O)Nc1c(Cl)cc(Cl)cc12` [Example 173], the IC50 was less than 0.1 µM. In the case of `C[C@H](NC(=O)C(F)(F)C(F)(F)F)C(=O)N(C)[C@@H](CC(C)(C)C)C(=O)N1C[C@]2(C[C@H]1C#N)C(=O)Nc1ccc(Cl)cc12` [Example 174], the IC50 is reported as less than 0.1 µM. `CN(C(=O)c1cc2c([nH]1)CN(C(=O)C(F)(F)F)CC2)[C@@H](CC(C)(C)C)C(=O)N1C[C@]2(C[C@H]1C#N)C(=O)Nc1ccccc12` [Example 175] gave an IC50 of 0.1 to 1 µM. Work on `CC(C)N1CCc2cc(C(=O)N(C)[C@@H](CC(C)(C)C)C(=O)N3C[C@]4(C[C@H]3C#N)C(=O)Nc3ccccc34)[nH]c2C1` [Example 176] yielded an IC50 of less than 0.1 µM. `CN(C(=O)[C@@H]1C[C@@H]2CCCC[C@@H]2N1C(=O)C(F)(F)F)[C@@H](CC(C)(C)C)C(=O)N1C[C@]2(C[C@H]1C#N)C(=O)Nc1ccccc12` [Example 177] was tested, and the IC50 was 0.1 to 1 µM. For `CC(C)N1[C@H](C(=O)N(C)[C@@H](CC(C)(C)C)C(=O)N2C[C@]3(C[C@H]2C#N)C(=O)Nc2ccccc23)C[C@@H]2CCC[C@@H]21` [Example 178], the IC50 was less than 0.1 µM. `CCN1C[C@H]2CCCC[C@H]2C[C@H]1C(=O)N(C)[C@@H](CC(C)(C)C)C(=O)N1C[C@]2(C[C@H]1C#N)C(=O)Nc1ccccc12` [Example 179] was tested, and the IC50 was less than 0.1 µM. `CC(C)N1[C@H](C(=O)N(C)[C@@H](CC(C)(C)C)C(=O)N2C[C@]3(C[C@H]2C#N)C(=O)Nc2ccccc23)C[C@@H]2CCCC[C@@H]21` [Example 180] showed an IC50 of less than 0.1 µM. For `CC(C)N1C[C@@H]2CCC[C@@H]2[C@H]1C(=O)N(C)[C@@H](CC(C)(C)C)C(=O)N1C[C@]2(C[C@H]1C#N)C(=O)Nc1ccccc12` [Example 181], the IC50 was less than 0.1 µM. In the case of `CC(C)N1C[C@]2(C[C@H]1C(=O)N(C)[C@@H](CC(C)(C)C)C(=O)N1C[C@]3(C[C@H]1C#N)C(=O)Nc1ccccc13)C(=O)Nc1ccccc12` [Example 183], the IC50 is reported as 0.1 to 1 µM. Work on `CC(C)N1c2ccccc2C[C@H]1C(=O)N(C)[C@@H](CC(C)(C)C)C(=O)N1C[C@]2(C[C@H]1C#N)C(=O)Nc1ccccc12` [Example 184] yielded an IC50 of less than 0.1 µM. In the case of `CC(C)C[C@@H](C(=O)N1C[C@]2(C[C@H]1C#N)C(=O)Nc1ccccc12)N(C)C(=O)[C@H](C)NC(=O)c1c(F)ccc2[nH]ccc12` [Example 185], the IC50 is reported as less than 0.1 µM. `CC(C)C[C@@H](C(=O)N1C[C@]2(C[C@H]1C#N)C(=O)Nc1ccccc12)N(C)C(=O)[C@H](C)NC(=O)c1cc2[nH]ccc2cc1F` [Example 186] showed an IC50 of less than 0.1 µM. Compound `CC(C)C[C@@H](C(=O)N1C[C@]2(C[C@H]1C#N)C(=O)Nc1ccccc12)N(C)C(=O)[C@H](C)NC(=O)c1c(F)ccc2ccoc12` [Example 187] has an IC50 of less than 0.1 µM. In the case of `CC(C)C[C@@H](C(=O)N1C[C@]2(C[C@H]1C#N)C(=O)Nc1ccccc12)N(C)C(=O)[C@H](C)NC(=O)c1cc2occc2cc1F` [Example 188], the IC50 is reported as less than 0.1 µM. With `CC(C)C[C@@H](C(=O)N1C[C@]2(C[C@H]1C#N)C(=O)Nc1ccccc12)N(C)C(=O)[C@H](C)NC(=O)c1ccc2c(c1)OCC2` [Example 190] the IC50 was less than 0.1 µM. Compound `[2H]C([2H])([2H])N(C(=O)[C@H](C)NC(=O)C(F)(F)F)[C@@H](CCCC)C(=O)N1C[C@]2(C[C@H]1C#N)C(=O)Nc1ccccc12` [Example 191] has an IC50 of less than 0.1 µM. In the case of `[2H]C([2H])([2H])N(C(=O)[C@H](C)NC(=O)C(F)(F)C(F)(F)F)[C@@H](CCCC)C(=O)N1C[C@]2(C[C@H]1C#N)C(=O)Nc1ccccc12` [Example 192], the IC50 is reported as less than 0.1 µM. In the case of `CC[C@H](NC(=O)C(=O)Nc1c(F)cccc1C(F)(F)F)C(=O)N(C)[C@@H](CC(C)C)C(=O)N1C[C@]2(C[C@H]1C#N)C(=O)Nc1ccccc12` [Example 193], the IC50 is reported as less than 0.1 µM. In the case of `CC[C@H](NC(=O)c1ccc(F)cc1C(F)(F)F)C(=O)N(C)[C@@H](CC(C)C)C(=O)N1C[C@]2(C[C@H]1C#N)C(=O)Nc1ccccc12` [Example 194], the IC50 is reported as less than 0.1 µM. Work on `C[C@H](NC(=O)C1(F)C(F)(F)C1(F)F)C(=O)N(C)[C@@H](CC1CC1)C(=O)N1C[C@]2(C[C@H]1C#N)C(=O)Nc1ccccc12` [Example 195] yielded an IC50 of less than 0.1 µM. `CC[C@H](NC(=O)C1(F)C(F)(F)C1(F)F)C(=O)N(C)[C@@H](CC(C)C)C(=O)N1C[C@]2(C[C@H]1C#N)C(=O)Nc1ccccc12` [Example 196] gave an IC50 of less than 0.1 µM. `CC(C)C[C@@H](C(=O)N1C[C@]2(C[C@H]1C#N)C(=O)Nc1ccccc12)N(C)C(=O)[C@H](C)NC(=O)C(F)(F)C1CCCC1` [Example 197] gave an IC50 of less than 0.1 µM. `CC[C@H](NC(=O)C(F)(F)F)C(=O)N(C)[C@@H](CC(C)C)C(=O)N1C[C@]2(C[C@H]1C#N)C(=O)Nc1ccccc12` [Example 199] showed an IC50 of less than 0.1 µM. `CC[C@H](NC(=O)C(F)(F)C(F)(F)F)C(=O)N(C)[C@@H](CC(C)C)C(=O)N1C[C@]2(C[C@H]1C#N)C(=O)Nc1ccccc12` [Example 200] showed an IC50 of less than 0.1 µM. `CC(C)C[C@@H](C(=O)N1C[C@]2(C[C@H]1C#N)C(=O)Nc1ccccc12)N(C)C(=O)[C@H](C)NC(=O)C(=O)Nc1c(F)cccc1C(F)(F)F` [Example 202] showed an IC50 of less than 0.1 µM. `C[C@H](NC(=O)C(F)(F)F)C(=O)N(C)[C@@H](CC1CC1)C(=O)N1C[C@]2(C[C@H]1C#N)C(=O)Nc1ccccc12` [Example 203] showed an IC50 of less than 0.1 µM. For `C[C@H](NC(=O)C(F)(F)F)C(=O)N(C)[C@@H](C)C(=O)N1C[C@]2(C[C@H]1C#N)C(=O)Nc1ccccc12` [Example 204], the IC50 was less than 0.1 µM. With `C[C@H](NC(=O)C(F)(F)C(F)(F)F)C(=O)N(C)[C@@H](CC1CC1)C(=O)N1C[C@]2(C[C@H]1C#N)C(=O)Nc1ccccc12` [Example 205] the IC50 was less than 0.1 µM. Work on `C[C@H](NC(=O)C(F)(F)C(F)(F)F)C(=O)N(C)[C@@H](C)C(=O)N1C[C@]2(C[C@H]1C#N)C(=O)Nc1ccccc12` [Example 207] yielded an IC50 of less than 0.1 µM. `C[C@H](NC(=O)c1cc2c(F)cc(F)c(F)c2[nH]1)C(=O)N(C)[C@@H](CC(C)(C)C)C(=O)N1C[C@]2(C[C@H]1C#N)C(=O)Nc1ccccc12` [Example 208] showed an IC50 of less than 0.1 µM. With `C[C@H](NC(=O)C(C)(C)C)C(=O)N(C)[C@@H](CC(C)(C)C)C(=O)N1C[C@]2(C[C@H]1C#N)C(=O)Nc1ccccc12` [Example 209] the IC50 was less than 0.1 µM. `C[C@H](NC(=O)c1cc(OC(F)(F)F)c2ncccc2c1)C(=O)N(C)[C@@H](CC(C)(C)C)C(=O)N1C[C@]2(C[C@H]1C#N)C(=O)Nc1ccccc12` [Example 210] gave an IC50 of less than 0.1 µM. `C[C@H](NC(=O)c1ccc(Cl)cc1)C(=O)N(C)[C@@H](CC(C)(C)C)C(=O)N1C[C@]2(C[C@H]1C#N)C(=O)Nc1ccccc12` [Example 211] gave an IC50 of less than 0.1 µM. `C[C@H](NC(=O)c1ccc(Cl)c(Cl)c1)C(=O)N(C)[C@@H](CC(C)(C)C)C(=O)N1C[C@]2(C[C@H]1C#N)C(=O)Nc1ccccc12` [Example 212] was tested, and the IC50 was less than 0.1 µM. With `C[C@H](NC(=O)c1ccc(C(C)(C)C)cc1)C(=O)N(C)[C@@H](CC(C)(C)C)C(=O)N1C[C@]2(C[C@H]1C#N)C(=O)Nc1ccccc12` [Example 213] the IC50 was less than 0.1 µM.
